PubChem BioAssay AID330 (DTP/NCI, 2004)
“And” between values parts separate entries of the source, which are not always exact repeats. Equal entries are not always repeated. Toxic doses and inconclusive results are not listed.

Tested on: P388 leukemia ip, CD2F1 mice, survival T/C
Test: NCI In Vivo Anticancer Drug Screen. Data for tumor model P388 Leukemia (intraperitoneal) in CD2F1 (CDF1) mice
Details: endpoint: median survival time, higher = longer survival
How it was run: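 Mice carrying the transplanted tumor received test compound or vehicle. Survival was recorded in each group, and the value is the treated-group measurement divided by that of the vehicle-treated control group.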

[1] = dose: 100.0 mg/kg/injection, schedule: Q01DX001 (ip), vehicle: Klucel (hydroxypropylcellulose) (HPC)
[2] = dose: 200.0 mg/kg/injection, schedule: Q01DX001 (ip), vehicle: Klucel (hydroxypropylcellulose) (HPC)
[3] = dose: 400.0 mg/kg/injection, schedule: Q01DX001 (ip), vehicle: Klucel (hydroxypropylcellulose) (HPC)
[4] = dose: 400.0 mg/kg/injection, schedule: Q04DX002 (ip), vehicle: saline with Tween-80
[5] = dose: 60.0 mg/kg/injection, schedule: Q01DX005 (ip), vehicle: saline with Tween-80
[6] = dose: 120.0 mg/kg/injection, schedule: Q01DX005 (ip), vehicle: saline with Tween-80
[7] = dose: 240.0 mg/kg/injection, schedule: Q01DX005 (ip), vehicle: saline with Tween-80

COc1cc(C/C(=N/N=C(N)N)C(=O)O)cc(OC)c1OC
T/C (dose: 100.0 mg/kg/injection, schedule: Q01DX001 (ip), vehicle: saline): 99 % of control | T/C (dose: 200.0 mg/kg/injection, schedule: Q01DX001 (ip), vehicle: saline): 100 % of control | T/C (dose: 400.0 mg/kg/injection, schedule: Q01DX001 (ip), vehicle: saline): 100 % of control

C#CCN1CC(OC)Nc2c(O)cccc2C1=O (stereo not given) (tested in a mixture with another compound)
T/C (dose: 2.5 mg/kg/injection, schedule: Q01DX005 (ip), vehicle: water): 113 % of control | T/C (dose: 5.0 mg/kg/injection, schedule: Q01DX005 (ip), vehicle: water): 110 % of control and 113 % of control | T/C (dose: 10.0 mg/kg/injection, schedule: Q01DX005 (ip), vehicle: water): 123 % of control | T/C (dose: 20.0 mg/kg/injection, schedule: Q01DX005 (ip), vehicle: water): 119 % of control and 123 % of control

Cc1nnc2c(=O)n(C)ccn12
T/C (dose: 25.0 mg/kg/injection, schedule: Q01DX001 (ip), vehicle: saline with Tween-80): 95 % of control | T/C (dose: 50.0 mg/kg/injection, schedule: Q01DX001 (ip), vehicle: saline with Tween-80): 95 % of control | T/C (dose: 100.0 mg/kg/injection, schedule: Q01DX001 (ip), vehicle: saline with Tween-80): 97 % of control

N#Cc1c(NC(=O)CCC(=O)O)ccc2ccccc12
T/C (dose: 50.0 mg/kg/injection, schedule: Q01DX009 (ip), vehicle: saline): 99 % of control | T/C (dose: 100.0 mg/kg/injection, schedule: Q01DX009 (ip), vehicle: saline): 114 % of control | T/C (dose: 200.0 mg/kg/injection, schedule: Q01DX009 (ip), vehicle: saline): 114 % of control

CCOC(CN/C(=C/c1ccc2ccccc2[n+]1C)SC)OCC
T/C (dose: 15.0 mg/kg/injection, schedule: Q01DX005 (ip), vehicle: saline with Tween-80): 117 % of control | T/C (dose: 30.0 mg/kg/injection, schedule: Q01DX005 (ip), vehicle: saline with Tween-80): 121 % of control

COSc1ccccc1
T/C [1]: 96 % of control | T/C [2]: 90 % of control | T/C [3]: 104 % of control

COC(=O)c1c(SC)c2sc3ccccc3c2oc1=O
T/C (dose: 6.25 mg/kg/injection, schedule: Q04DX002 (ip), vehicle: saline with Tween-80): 100 % of control | T/C (dose: 12.5 mg/kg/injection, schedule: Q04DX002 (ip), vehicle: saline with Tween-80): 106 % of control | T/C (dose: 25.0 mg/kg/injection, schedule: Q04DX002 (ip), vehicle: saline with Tween-80): 99 % of control

C[CH2][Pb]([CH2]C)([CH2]C)[O]C(=O)CBr
T/C (dose: 2.0 mg/kg/injection, schedule: Q01DX009 (ip), vehicle: saline): 111 % of control | T/C (dose: 3.0 mg/kg/injection, schedule: Q01DX009 (ip), vehicle: saline): 117 % of control | T/C (dose: 4.5 mg/kg/injection, schedule: Q01DX009 (ip), vehicle: saline): 119 % of control

Cn1c2ccccc2c2nnc(N/N=C/c3cccs3)nc21
T/C [4]: 105 % of control and 91 % of control

Clc1ccc([Si]23OCCN(CCO2)CCO3)cc1
T/C (dose: 0.19 mg/kg/injection, schedule: Q01DX009 (ip), vehicle: Klucel (hydroxypropylcellulose) (HPC)): 93 % of control | T/C (dose: 0.39 mg/kg/injection, schedule: Q01DX009 (ip), vehicle: Klucel (hydroxypropylcellulose) (HPC)): 99 % of control | T/C (dose: 0.78 mg/kg/injection, schedule: Q01DX009 (ip), vehicle: Klucel (hydroxypropylcellulose) (HPC)): 108 % of control

COc1ccc2c(c1O)-c1cccc3c1[C@@H](C2)N(CCOC(=O)NCCCl)CC3
T/C (dose: 9.38 mg/kg/injection, schedule: Q04DX003 (ip), vehicle: distilled water + Tween-80): 101 % of control | T/C (dose: 18.75 mg/kg/injection, schedule: Q04DX003 (ip), vehicle: distilled water + Tween-80): 99 % of control | T/C (dose: 37.5 mg/kg/injection, schedule: Q04DX003 (ip), vehicle: distilled water + Tween-80): 97 % of control | T/C (dose: 75.0 mg/kg/injection, schedule: Q04DX003 (ip), vehicle: distilled water + Tween-80): 99 % of control | T/C (dose: 150.0 mg/kg/injection, schedule: Q04DX003 (ip), vehicle: distilled water + Tween-80): 99 % of control | T/C (dose: 300.0 mg/kg/injection, schedule: Q04DX003 (ip), vehicle: distilled water + Tween-80): 105 % of control

COc1cc(C2c3cc4c(cc3OC(C)(OC)C2C(C)=O)OCO4)cc(OC)c1OC (stereo not given)
T/C [5]: 90 % of control | T/C [6]: 94 % of control | T/C [7]: 95 % of control

Cc1nc2c(cnn2C)cc1CCc1ccccc1
T/C [5]: 94 % of control | T/C [6]: 95 % of control | T/C [7]: 103 % of control

CCCCCCC(=O)CC1(C(=O)OC)NC(=S)NC(=O)C1C#N (stereo not given)
T/C (dose: 60.0 mg/kg/injection, schedule: Q01DX005 (ip), vehicle: Klucel (hydroxypropylcellulose) (HPC)): 100 % of control | T/C (dose: 120.0 mg/kg/injection, schedule: Q01DX005 (ip), vehicle: Klucel (hydroxypropylcellulose) (HPC)): 103 % of control | T/C (dose: 240.0 mg/kg/injection, schedule: Q01DX005 (ip), vehicle: Klucel (hydroxypropylcellulose) (HPC)): 97 % of control

COc1ccc(-c2cc(-c3ccccc3)cc(-c3ccc(OC)cc3)n2)cc1
T/C (dose: 50.0 mg/kg/injection, schedule: Q01DX005 (ip), vehicle: Klucel (hydroxypropylcellulose) (HPC)): 98 % of control | T/C (dose: 100.0 mg/kg/injection, schedule: Q01DX005 (ip), vehicle: Klucel (hydroxypropylcellulose) (HPC)): 94 % of control | T/C (dose: 200.0 mg/kg/injection, schedule: Q01DX005 (ip), vehicle: Klucel (hydroxypropylcellulose) (HPC)): 92 % of control

COC(=O)CCCCCCCCCCN(CCCl)CCCl
T/C (dose: 6.25 mg/kg/injection, schedule: Q01DX009 (ip), vehicle: saline): 160 % of control and 169 % of control | T/C (dose: 12.5 mg/kg/injection, schedule: Q01DX009 (ip), vehicle: saline): 89 % of control

COc1ccc(/C=C/C2=CC(=O)CC(/C=C/c3ccc(OC)c(OC)c3)C2)cc1OC (stereo not given)
T/C [1]: 89 % of control | T/C [2]: 100 % of control | T/C [3]: 97 % of control

Nc1cc(-c2ccc(Cl)cc2)nn1-c1nnc2c(n1)[nH]c1ccccc12
T/C (dose: 100.0 mg/kg/injection, schedule: Q04DX002 (ip), vehicle: saline with Tween-80): 92 % of control | T/C (dose: 200.0 mg/kg/injection, schedule: Q04DX002 (ip), vehicle: saline with Tween-80): 94 % of control | T/C [4]: 99 % of control

O=c1[nH]cnc2[nH]ncc12
T/C (dose: 20.0 mg/kg/injection, schedule: Q01DX005 (ip), vehicle: saline with Tween-80): 104 % of control | T/C (dose: 40.0 mg/kg/injection, schedule: Q01DX005 (ip), vehicle: saline with Tween-80): 110 % of control | T/C (dose: 50.0 mg/kg/injection, schedule: Q01DX009 (ip), vehicle: saline sonified): 95 % of control | T/C (dose: 50.0 mg/kg/injection, schedule: Q01DX009 (ip), vehicle: saline with Tween-80): 95 % of control | T/C (dose: 50.0 mg/kg/injection, schedule: Q04DX003 (ip), vehicle: saline sonified): 109 % of control | T/C (dose: 50.0 mg/kg/injection, schedule: Q04DX003 (ip), vehicle: saline with Tween-80): 90 % of control | T/C (dose: 80.0 mg/kg/injection, schedule: Q01DX005 (ip), vehicle: saline with Tween-80): 106 % of control | T/C (dose: 100.0 mg/kg/injection, schedule: Q01DX009 (ip), vehicle: saline sonified): 100 % of control | T/C (dose: 100.0 mg/kg/injection, schedule: Q01DX009 (ip), vehicle: saline with Tween-80): 95 % of control | T/C (dose: 100.0 mg/kg/injection, schedule: Q04DX003 (ip), vehicle: saline sonified): 95 % of control | T/C (dose: 100.0 mg/kg/injection, schedule: Q04DX003 (ip), vehicle: saline with Tween-80): 95 % of control | T/C (dose: 160.0 mg/kg/injection, schedule: Q01DX005 (ip), vehicle: saline with Tween-80): 104 % of control | T/C (dose: 200.0 mg/kg/injection, schedule: Q01DX009 (ip), vehicle: saline sonified): 100 % of control | T/C (dose: 200.0 mg/kg/injection, schedule: Q04DX003 (ip), vehicle: saline sonified): 113 % of control | T/C (dose: 200.0 mg/kg/injection, schedule: Q04DX003 (ip), vehicle: saline with Tween-80): 104 % of control

Cc1ccc2occ(-c3nnc(NC(=O)c4ccccc4)s3)c(=O)c2c1
T/C [5]: 93 % of control | T/C [6]: 86 % of control

Cc1cc2n(n1)C(c1ccccc1)=C(c1ccccc1)OC2(c1ccccc1)c1ccccc1
T/C (dose: 50.0 mg/kg/injection, schedule: Q04DX002 (ip), vehicle: Klucel (hydroxypropylcellulose) (HPC)): 101 % of control | T/C (dose: 100.0 mg/kg/injection, schedule: Q04DX002 (ip), vehicle: Klucel (hydroxypropylcellulose) (HPC)): 97 % of control | T/C (dose: 200.0 mg/kg/injection, schedule: Q04DX002 (ip), vehicle: Klucel (hydroxypropylcellulose) (HPC)): 97 % of control | T/C (dose: 400.0 mg/kg/injection, schedule: Q04DX002 (ip), vehicle: Klucel (hydroxypropylcellulose) (HPC)): 98 % of control
